Data as given in publication PMC11574021, “CEP192 localises mitotic Aurora-A activity by priming its interaction with TPX2” (The EMBO Journal, 2024).

Test system: LATS2-pS83 in U251 cells
Experiment: Immunofluorescence, LATS2-pS83 spindle pole signal intensity, U251
Type: cell-based, Homo sapiens
Settings: for centrosomal LATS2-pS83 signal: U251, siRNA 48 h or Aurora-A inhibitor 30 min (250 nM), immunofluorescence
Description: As noted in the figures, the following drugs were incubated with cells for 30 min at 37 °C: Aurora-B-i ZM447439 2 µM [10 mM], PLK1-I BI2536 1 µM [10 mM] and Aurora-A-i MLN8237 [5 mM] was used at 250 and 500 nM in U251 and RPE1 cells, respectively. Drugs were resuspended in DMSO to the stock concentrations indicated in square brackets. BI2536 (HY-50698), MLN8237 (HY-10971) and ZM447439 (HY-10128) were all purchased from MedChemExpress. For western blotting, a 20-min pre-treatment with proteasome inhibitor (20 µM MG-132, MerckMillipore, 47490 [20 mM]) was required prior to the addition of DMSO control or kinase inhibitors. This prevented mitotic exit as a consequence of checkpoint override following Aurora-A and Aurora-B inhibitor addition.
siRNA depletion was carried out by reverse transfection using oligofectamine (Thermo Scientific, 12252011) and lipofectamine RNAiMax (Thermo Scientific, 13778075), according to the manufacturer’s instructions, for U251 and RPE1 cells, respectively. For immunofluorescence, 1 × 10^5 cells were seeded in six-well plates and simultaneously transfected with 60 pmol siRNA duplex and 3 µl transfection reagent diluted in 200 µl Opti-MEM serum-free medium. Growth medium was added to a final volume of 2 ml. For western blotting, 1 × 10^6 cells were seeded in 10 cm dishes and transfected with 300 pmol siRNA duplex and 15 µl transfection reagent diluted in 1000 µl Opti-MEM. Growth medium was added to a final volume of 10 ml. Cells were incubated with siRNA for 48 h prior to fixation or harvesting. As a negative control (siControl) Silencer select negative control No.1 siRNA was transfected as above. For TACC3 depletion, where two siRNA duplexes were used, 40 pmol of each was transfected per well.
For siRNA depletion, 1 × 10^5 cells were seeded in six-well plates and transfected as described above for 48 h prior to fixation. For all other experiments, 2.5 × 10^5 cells were seeded in six-well plates and grown for 24 h before fixation. All cells were grown on 12 mm diameter glass coverslips (VWR, 631–1577). Cells in Fig. EV4A were fixed using 4% (wt/v) paraformaldehyde (PFA) in PBS for 12 min, followed by 10 min quenching in 50 mM NH4Cl in PBS and 5 min of permeabilization with 0.2% (v/v) Triton X-100 in PBS, all at room temperature. For centriole staining in Fig. EV4E, cells were fixed in pre-chilled methanol for 10 min at −20 °C, incubated in PBS for 10 min and then 5 min in 0.5% Triton-X-100, 0.5% Tween, 0.05% SDS in PBS (v/v). To observe centromere and kinetochore staining in Fig. 7C and Appendix Fig. S8A, cells were fixed with PTEMF buffer (20 mM PIPES pH 6.8, 0.2% (v/v) Triton X-100, 10 mM EGTA, 1 mM MgCl2, 4% PFA (wt/v) in PBS) for 12 min at room temperature. […]

| Molecule | centrosomal LATS2-pS83 signal | reduction of p-LATS2 (pS83) intensity (U251, Aurora-A inhibition 30 min, authors' response to referees) [%] |
| --- | --- | --- |
| 5′-CGGUAGUGAUAAAAGCUCAtt-3′ [siTPX2] | reducing LATS2 phosphorylation | – |
| 5′-CAAACAACUUGGAAAUCGAtt-3′ [siCEP192] | reducing LATS2 phosphorylation | – |
| COc1cc(Nc2ncc3c(n2)-c2ccc(Cl)cc2C(c2c(F)cccc2OC)=NC3)ccc1C(=O)O [Alisertib] | obliterated | > 80 |
